Where “and” joins values, the source holds several entries; their conditions need not be identical. Equal values may be shown once.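 All cell lines were grown in 96-well plates and treated with compound for 48 hours. The concentration for 50% growth inhibition is given as GI50. The concentration for full growth arrest is given as TGI.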
Experiments:
Test in all cases: DTP human tumour cell line panel, 48 h
[1] = system: DU-145 prostate
[2] = system: MCF7 breast
[3] = system: SF-539 CNS
[4] = system: CAKI-1 renal
[5] = system: SK-MEL-2 melanoma
[6] = system: A498 renal
[7] = system: UACC-62 melanoma
[8] = system: HT29 colon
[9] = system: M14 melanoma
[10] = system: SR leukemia

| SMILES | GI50 [1] | TGI [1] | GI50 [2] | TGI [2] | GI50 [3] | TGI [3] | GI50 [4] | TGI [4] | GI50 [5] | TGI [5] | GI50 [6] | TGI [6] | GI50 [7] | TGI [7] | GI50 [8] | TGI [8] | GI50 [9] | TGI [9] | GI50 [10] | TGI [10] |
| --- | --- | --- | --- | --- | --- | --- | --- | --- | --- | --- | --- | --- | --- | --- | --- | --- | --- | --- | --- | --- |
| COc1ccc(CCNC(=O)c2ccc(NC3=C(Cl)C(=O)N(Cc4ccccc4)C3=O)cc2)cc1OC | 16.2 µM | > 100 µM | 6.32 µM | > 100 µM | 23.9 µM | 70.5 µM | 3.04 µM | 9.11 µM | 16.8 µM | 54.1 µM | 27.2 µM | 72.1 µM | 11.8 µM | 74.8 µM | 7.88 µM | > 100 µM | 5.47 µM | > 100 µM | 1440 nM | 3.15 µM |
| CC[C@H]1CN2CCc3cc(OC)c(OC)cc3[C@@H]2C[C@@H]1C[C@H]1NCCc2c1[nH]c1ccc(O)cc21 | 0.0249 µM | 0.0584 µM | – | 0.137 µM | 0.0211 µM and 0.0232 µM | 0.0476 µM and 0.0513 µM and 0.0408 µM | – | 0.614 µM and 0.68 µM | 0.0228 µM | 0.052 µM and 0.0353 µM | 0.191 µM | 0.136 µM and 0.507 µM and 0.223 µM | 0.0249 µM and 0.0448 µM | – | 0.0271 µM and 0.0332 µM | 0.0862 µM and 0.341 µM and 0.11 µM | 0.0365 µM and 0.0275 µM | 0.162 µM and 0.0729 µM and 0.0478 µM | 15.2 nM and 33.3 nM | – |
| O=C1NC(=O)/C(=C\c2ccccc2)C2=C1CCCC2 | 10.8 µM | 22.9 µM | 5.15 µM | 25 µM | 11.6 µM | 24.1 µM | 5.63 µM | 17.3 µM | 7.72 µM | 22.9 µM | 12.9 µM | 26.1 µM | 3.13 µM | 9.13 µM | 14.9 µM | 44.1 µM | 3.72 µM | 12.8 µM | 2350 nM | 5.77 µM |
| O=C1NC(=O)C(c2cccc([N+](=O)[O-])c2)=C1Nc1cc(Cl)c(O)c(Cl)c1 | > 25 µM | > 25 µM | > 25 µM | > 25 µM | > 25 µM | > 25 µM | > 20.9 µM | > 25 µM | > 19.8 µM | > 25 µM | > 11.5 µM | > 25 µM | > 20.8 µM | > 25 µM | > 25 µM | > 25 µM | > 25 µM | > 25 µM | – | – |
| COc1cc(C(=O)N2CCN(c3ncccn3)CC2)c(N)cc1OCc1ccccc1 | 37.2 µM | > 100 µM | > 100 µM | > 100 µM | – | – | 11.9 µM | > 100 µM | > 100 µM | > 100 µM | 54.2 µM | > 100 µM | > 100 µM | > 100 µM | > 100 µM | > 100 µM | > 100 µM | > 100 µM | > 100000 nM | > 100 µM |
| O[C@H](c1cc(C(F)(F)F)nc2c(C(F)(F)F)cccc12)[C@@H]1CCCCN1 | 3.41 µM | 10.6 µM | 2.46 µM | 6.8 µM | 6.43 µM | 15 µM | 1.96 µM | 7.29 µM | 3.26 µM | 11.9 µM | 8.98 µM | 22.1 µM | 5.9 µM | 17.5 µM | 2.49 µM | 5.98 µM | 2.53 µM | 6.69 µM | 2320 nM | 9.5 µM |
